Assay results reported in patent US10940139B2, “Compounds that interact with the Ras superfamily for the treatment of cancers, inflammatory diseases, rasopathies, and fibrotic disease” (Shy Therapeutics LLC, priority 2017, dated 2021).
Where two headings read alike, the source gives them in different places.

Experiments:
[1] = test system: TNFα production in RAW 264.7 macrophage cell line; experiment: Mouse TNF alpha quantification assay (LPS-stimulated macrophages, ELISA); assay type: cell-based; settings: RAW264.7, RAW 264.7 murine leukemia virus transformed macrophage cell lines, LPS stimulation, read-out: TNF-α % Inhibition at 30 μM
[2] = test system: IL6 production in RAW 264.7 macrophage cell line; experiment: Mouse IL6 quantification assay (LPS-stimulated macrophages, ELISA); assay type: cell-based; settings: RAW264.7, RAW 264.7 murine leukemia virus transformed macrophage cell lines, LPS stimulation, read-out: IL-6 % Inhibition at 30 μM
[3] = biological target: KRas G12D/Q61H double mutant (Homo sapiens (Human), UniProt P01116, G12D/Q61H); experiment: Ras GTP binding domain inhibition assay (labeled GTP)
Outline: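 Ni-plate capture of His-KRas (3-10 μg/ml, o/n, 4° C); Tris pH 7.5/MgCl2/DTT buffer, 1% DMSO. Cpd 20 μM or titration, 3 h RT. Cy3/Cy5-GTP 45 min RT, wash, fluorescence of bound GTP.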

[4] = 20 μM compound, read-out: % Inhibition at 20 μM KRas G12D Q61H
[5] = at 20 μM, read-out: KRas G12D Q61H % Inh.

KRas G12D/Q61H double mutant, sequence (P01116-2 other isoform, or with tags, fused parts or gaps G12D/Q61H): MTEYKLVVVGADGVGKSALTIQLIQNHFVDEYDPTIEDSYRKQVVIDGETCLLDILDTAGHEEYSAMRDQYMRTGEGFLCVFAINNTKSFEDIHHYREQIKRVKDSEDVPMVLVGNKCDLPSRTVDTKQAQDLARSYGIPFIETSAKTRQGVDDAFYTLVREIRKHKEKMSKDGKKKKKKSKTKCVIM

| SMILES | inhibition at 20 µM [3, 4] [%] | inhibition at 30 µM [1] [%] | inhibition at 30 µM [2] [%] | further results |
| --- | --- | --- | --- | --- |
| O=C(CCc1cnn(-c2ccccc2)c1)Nc1nnc(-c2ccccc2)[nH]1 |  | 1 to 25 | 26 to 50 |  |
| CN(CCc1ccncc1)C(=O)c1csc2c(O)nc(N)nc12 |  | 0 | 1 to 25 |  |
| O=C(c1csc2c(O)nc(-c3ccccn3)nc12)N1CCC(c2ccccc2)CC1 |  | 51 to 75 | 76 to 100 |  |
| COC1CC(CNc2nc(-c3ccccn3)nc3scc(-c4ccccc4)c23)CCC1OCC(N)=O (centres unmarked) |  | 76 to 100 | 76 to 100 |  |
| OCCn1ncc2c1CCCC2Nc1nc(-c2ccccn2)nc2scc(-c3ccccc3)c12 (centres unmarked) |  | 26 to 50 | 26 to 50 |  |
| CC(CC(=O)N1CCOCC1)c1nc(-c2ccccn2)nc2scc(-c3ccccc3)c12 (centres unmarked) |  | 1 to 25 | 1 to 25 |  |
| COc1cncc(CCNC(=O)c2csc3nc(-c4ccccn4)nc(N4CCOCC4)c23)c1 |  | 0 | 1 to 25 |  |
| O=C(c1csc2c(O)nc(-c3cccnc3)nc12)N1CCNC(Cc2cccc(F)c2)C1 (centres unmarked) |  | 1 to 25 | 26 to 50 |  |
| CC(C)Oc1ccc(-c2csc3c(O)nc(-c4nccn4C)nc23)cn1 |  | 76 to 100 | 76 to 100 |  |
| CC(C)NC(=O)Nc1cccc(C(=O)Nc2nnc(-c3ccccn3)[nH]2)c1 [drawing 1926] |  | 1 to 25 | 0 |  |
| O=C(Cc1ccc(-n2cnnn2)cc1)Nc1nnc(-c2ccccn2)[nH]1 [drawing 1927] |  | 1 to 25 | 0 |  |
| COc1cccc(CCC(=O)Nc2nnc(-c3ccccn3)[nH]2)c1 [drawing 1928] |  | 1 to 25 | 0 |  |
| COc1ccc(CCC(=O)Nc2nnc(-c3ccccn3)[nH]2)cc1F [drawing 1929] |  | 26 to 50 | 1 to 25 |  |
| O=C(Nc1nnc(-c2ccccn2)[nH]1)c1ccc2c(c1)CCO2 [drawing 1930] |  | 0 | 1 to 25 |  |
| O=C(Cc1c[nH]c2ccccc12)Nc1nnc(-c2ccccn2)[nH]1 [drawing 1931] |  | 1 to 25 | 26 to 50 |  |
| Cn1cc(C2CC2C(=O)Nc2nnc(-c3ccccn3)[nH]2)cn1 (centres unmarked) [drawing 1932] |  | 1 to 25 | 0 |  |
| COc1cccc(CC(=O)Nc2nnc(-c3ccccn3)[nH]2)c1 [drawing 1933] |  | 1 to 25 | 26 to 50 |  |
| O=C(CCn1ccc2ccccc21)Nc1nnc(-c2ccccn2)[nH]1 [drawing 1934] |  | 1 to 25 | 1 to 25 |  |
| O=C(Nc1nnc(-c2ccccn2)[nH]1)c1ccn(-c2ccccc2)n1 [drawing 1935] |  | 1 to 25 | 1 to 25 |  |

| SMILES | inhibition at 20 µM [3, 4] [%] | inhibition at 30 µM [1] [%] | inhibition at 30 µM [2] [%] | further results |
| --- | --- | --- | --- | --- |
| Cc1c(C(=O)Nc2nnc(-c3ccccn3)[nH]2)oc2ccccc12 [drawing 1936] |  | 1 to 25 | 0 |  |
| CC(Oc1ccccc1Cl)C(=O)Nc1nnc(-c2ccccn2)[nH]1 (centres unmarked) [drawing 1937] |  | 1 to 25 | 26 to 50 |  |
| O=C(Nc1nnc(-c2ccccn2)[nH]1)c1ccn(-c2cccc(F)c2)n1 [drawing 1938] |  | 0 | 26 to 50 |  |
| COc1ccc(CCC(=O)Nc2nnc(-c3ccccn3)[nH]2)cc1 [drawing 1939] |  | 0 | 1 to 25 |  |
| COc1ccc2c(ccn2CC(=O)Nc2nnc(-c3ccccn3)[nH]2)c1 [drawing 1940] |  | 1 to 25 | 26 to 50 |  |
| O=C(CCc1c[nH]c2ccccc12)Nc1nnc(-c2ccccn2)[nH]1 [drawing 1941] |  | 0 | 51 to 75 |  |
| O=C(Nc1nnc(-c2ccccn2)[nH]1)c1ccc2ccccc2n1 [drawing 1942] |  | 0 | 1 to 25 |  |
| Nc1nc(O)c2scc(-c3ccccc3Cl)c2n1 [drawing 2693] | 1 to 25 |  |  |  |
| FC(F)(F)c1csc2nc(-c3ccccn3)nc(N3CCOCC3)c12 [drawing 2741] | 1 to 25 |  |  |  |
| COc1cccc(OCCn2c(CN3CCCCC3)nc3ccccc32)c1 [drawing 3032] | 25 to 50 |  |  |  |
| COc1cccc(OCCn2c(CN3CCCCC3)nc3ccccc32)c1 [drawing 3033] |  |  |  | % Inhibition at 20 μM KRas G12D Q61H ([3]; 20 μM compound): B (B = 25-50% inhibition) |
| O=C(Cc1ccc2c(c1)OCCO2)Nc1nc(-c2ccccn2)cs1 [drawing 3246] |  |  |  | inhibition at 20 µM ([3]; 20 μM compound, KRas G12D/Q61H double mutant, read-out: % Inhibition at 20 μM of K-Ras mutant and wild-type protein, KRas G12D Q61H): 1 to 25% |
| O=C(Cc1ccc2c(c1)OCCO2)Nc1nc(-c2ccccn2)cs1 [drawing 3247] |  |  |  | % Inhibition at 20 μM of K-Ras mutant and wild-type protein, KRas G12D Q61H ([3]; 20 μM compound, KRas G12D/Q61H double mutant): A (1-25% inhibition) |
| Oc1nc(-c2ccccn2)nc2c(-c3cnc4ccccc4c3)csc12 [drawing 3780] |  |  |  | inhibition at 20 µM [3, 5]: 25 to 50% |
| Cc1cc2nc(-c3ccccn3)nc(O)c2s1 [drawing 3791] |  |  |  | inhibition at 20 µM [3, 5]: 51 to 75% |
| COC(=O)c1c(C)sc2nc(-c3ccccn3)nc(N)c12 [drawing 3804] |  |  |  | inhibition at 20 µM [3, 5]: 51 to 75% |
| COc1cnc(CNC(=O)c2c(C)sc3c(O)nc(-c4ccccn4)nc23)[nH]c1=O [drawing 3841] |  |  |  | inhibition at 20 µM [3, 5]: 0% |
| O=C(c1csc2c(O)nc(-c3ccccn3)nc12)N1CCNC(c2ccc(Cl)cc2)C1 (centres unmarked) [drawing 3843] |  |  |  | inhibition at 20 µM [3, 5]: 25 to 50% |

The next lines start with results.

| inhibition at 20 µM [3, 4] [%] | SMILES | inhibition at 30 µM [1] [%] | inhibition at 30 µM [2] [%] | further results |
| --- | --- | --- | --- | --- |
| 1 to 25 | Nc1nc(O)c2scc(-c3ccccc3)c2n1 [drawing 2692] |  |  |  |
| 25 to 50 | Oc1nc(-c2ccccn2)nc2[nH]cnc12 [drawing 2696] |  |  |  |
| 25 to 50 | Oc1nc(-c2ccccn2)nc2c1ncn2-c1ccccn1 [drawing 2698] |  |  |  |
| 25 to 50 | COc1ccc(COCC(=O)Nc2ccnc(-c3ccccn3)n2)cn1 [drawing 2699] |  |  |  |
| 25 to 50 | N#Cc1ccc(CC(=O)Nc2ccnc(-c3ccccn3)n2)cc1 [drawing 2700] |  |  |  |
| 1 to 25 | Brc1csc2nc(-c3ccccn3)nc(N3CCOCC3)c12 [drawing 2701] |  |  |  |
| 51 to 75 | c1ccc(-c2nc(N3CCOCC3)c3ccsc3n2)nc1 [drawing 2702] |  |  |  |
| 25 to 50 | CCN(CC)CCC(C)Nc1nc(-c2ccccn2)nc2sccc12 (centres unmarked) [drawing 2706] |  |  |  |
| 1 to 25 | Clc1csc2nc(-c3ccccn3)nc(N3CCOCC3)c12 [drawing 2707] |  |  |  |
| 51 to 75 | Oc1nc(-c2ccccn2)nc2c(C3CCNCC3)csc12 [drawing 2711] |  |  |  |
| 25 to 50 | COc1ccccc1N1CCN(C(=O)c2csc3c(O)nc(-c4ccccn4)nc23)CC1 [drawing 2712] |  |  |  |
| 51 to 75 | O=C(c1csc2c(O)nc(-c3ccccn3)nc12)N1CCN(c2ccccc2Cl)CC1 [drawing 2718] |  |  |  |
| 25 to 50 | O=C(c1csc2c(O)nc(-c3ccccn3)nc12)N1CCN(c2cccc(Cl)c2)CC1 [drawing 2719] |  |  |  |
| 25 to 50 | O=C(c1csc2c(O)nc(-c3ccccn3)nc12)N1CCN(c2ccccc2F)CC1 [drawing 2721] |  |  |  |
| 1 to 25 | N#Cc1ccccc1N1CCN(C(=O)c2csc3c(O)nc(-c4ccccn4)nc23)CC1 [drawing 2722] |  |  |  |
| 25 to 50 | COc1ccc(CN2CCN(C(=O)c3csc4c(O)nc(-c5ccccn5)nc34)CC2)cc1 [drawing 2725] |  |  |  |
| 25 to 50 | COc1cccc(C2CN(C(=O)c3csc4c(O)nc(-c5ccccn5)nc34)CCO2)c1 (centres unmarked) [drawing 2729] |  |  |  |
| 25 to 50 | O=C(c1csc2c(O)nc(-c3ccccn3)nc12)N1CCOC(c2ccc(Cl)cc2)C1 (centres unmarked) [drawing 2730] |  |  |  |

| inhibition at 20 µM [3, 4] [%] | SMILES | inhibition at 30 µM [1] [%] | inhibition at 30 µM [2] [%] | further results |
| --- | --- | --- | --- | --- |
| 25 to 50 | O=C(c1csc2c(O)nc(-c3ccccn3)nc12)N1CCNC(c2cccc(F)c2)C1 (centres unmarked) [drawing 2737] |  |  |  |
| 1 to 25 | O=C(NCCc1ccc(O)nc1)c1csc2nc(-c3ccccn3)nc(N3CCOCC3)c12 [drawing 2809] |  |  |  |
| 1 to 25 | O=C(NCCc1cnc(O)nc1)c1csc2nc(-c3ccccn3)nc(N3CCOCC3)c12 [drawing 2810] |  |  |  |
| 1 to 25 | CS(=O)(=O)CCCNC(=O)c1csc2nc(-c3ccccn3)nc(N3CCOCC3)c12 [drawing 2811] |  |  |  |
| 1 to 25 | COCCN(CCOC)c1nc(-c2ccccn2)nc2scc(C(=O)NCCc3cnc(O)nc3)c12 [drawing 2812] |  |  |  |
| 25 to 50 | COc1cc(COCC(=O)Nc2ccnc(-c3ccccn3)n2)ccn1 [drawing 2813] |  |  |  |
| 1 to 25 | Cc1cnc(-c2ccccn2)nc1NC(=O)Cc1ccc(C#N)cc1 [drawing 2814] |  |  |  |
| 25 to 50 | Cc1cnc(-c2ccccn2)nc1NC(=O)COCc1ccc(C#N)cc1 [drawing 2815] |  |  |  |
| 25 to 50 | Cc1cnc(-c2ccccn2)nc1NC(=O)COCc1ccnc(O)c1 [drawing 2816] |  |  |  |
| 1 to 25 | N#Cc1ccc(CC(=O)Nc2nc(-c3ccccn3)nc3sccc23)cc1 [drawing 2817] |  |  |  |
| 1 to 25 | COc1ccc2c(c1)CCC2C(=O)Nc1nc(-c2ccccn2)nc2sccc12 (centres unmarked) [drawing 2818] |  |  |  |
| 25 to 50 | N#Cc1csc2nc(-c3ccccn3)nc(N3CCOCC3)c12 [drawing 2819] |  |  |  |
| 1 to 25 | COc1cc(N2CCN(C(=O)c3csc4c(O)nc(-c5ccccn5)nc34)CC2)ccc1O [drawing 2820] |  |  |  |
| 25 to 50 | Nc1nc(-c2ccccn2)nc2sccc12 [drawing 2821] |  |  |  |
| 1 to 25 | Nc1nc(-c2ccccn2)nc2scc(-c3ccccc3)c12 [drawing 2822] |  |  |  |
| 1 to 25 | COC(=O)c1csc2c(O)nc(-c3ccccn3)nc12 [drawing 2823] |  |  |  |
| 1 to 25 | COc1cnc(CNC(=O)Cn2cnc3nc(-c4ccccn4)nc(N4CCOCC4)c32)[nH]c1=O [drawing 2824] |  |  |  |
